Measurements published in ChEMBL document CHEMBL1201861, “Genomics of Drug Sensitity in Cancer screening data, Wellcome Trust Sanger Institute”.

Assays:
Experiment in all cases: cells
Assay type in all cases: functional, cell-based, Homo sapiens
Calu-6 = conditions: Homo sapiens, Calu-6;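 further: growth of human Calu-6 cells, read out by a cell viability assay, IC50 marking inhibition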
Description: SANGER: Inhibition of human Calu-6 cell growth in a cell viability assay.

D-263MG = conditions: Homo sapiens, D-263MG
Description: SANGER: Inhibition of human D-263MG cell growth in a cell viability assay.

ES3 = conditions: Homo sapiens, ES3;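 further: growth inhibition of ES3 cells, read out with a cell viability assay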
Description: SANGER: Inhibition of human ES3 cell growth in a cell viability assay.

ES5 = conditions: Homo sapiens, ES5;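 further: growth inhibition of human ES5 cells, read out by a cell viability assay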
Description: SANGER: Inhibition of human ES5 cell growth in a cell viability assay.

ES8 = conditions: Homo sapiens, ES8;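 further: growth inhibition of human ES8 cells, read out with a cell viability assay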
Description: SANGER: Inhibition of human ES8 cell growth in a cell viability assay.

EW-1 = conditions: Homo sapiens, EW-1;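 further: growth inhibition of the human EW-1 cell line, read out by a cell viability assay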
Description: SANGER: Inhibition of human EW-1 cell growth in a cell viability assay.

HCE-T = conditions: Homo sapiens, HCE-T;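 further: cell viability assay read-out, reporting inhibition of HCE-T cell growth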
Description: SANGER: Inhibition of human HCE-T cell growth in a cell viability assay.

HD-MY-Z = conditions: Homo sapiens, HD-MY-Z;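 further: growth inhibition of HD-MY-Z cells, read out with a cell viability assay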
Description: SANGER: Inhibition of human HD-MY-Z cell growth in a cell viability assay.

HH = conditions: Homo sapiens, HH
Description: SANGER: Inhibition of human HH cell growth in a cell viability assay.

JVM-2 = conditions: Homo sapiens, JVM-2;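 further: growth inhibition of JVM-2 cells determined by a cell viability assay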
Description: SANGER: Inhibition of human JVM-2 cell growth in a cell viability assay.

KARPAS-299 = conditions: Homo sapiens, KARPAS-299
Description: SANGER: Inhibition of human KARPAS-299 cell growth in a cell viability assay.

KMOE-2 = conditions: Homo sapiens, KMOE-2;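 further: growth inhibition of human KMOE-2 cells, read out with a cell viability assay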
Description: SANGER: Inhibition of human KMOE-2 cell growth in a cell viability assay.

KNS-81-FD = conditions: Homo sapiens, KNS-81-FD;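 further: growth inhibition of KNS-81-FD cells, read out with a cell viability assay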
Description: SANGER: Inhibition of human KNS-81-FD cell growth in a cell viability assay.

KP-N-YS = conditions: Homo sapiens, KP-N-YS;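 further: cell viability assay measuring inhibition of cell line growth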
Description: SANGER: Inhibition of human KP-N-YS cell growth in a cell viability assay.

KURAMOCHI = conditions: Homo sapiens, KURAMOCHI;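 further: growth inhibition of KURAMOCHI cells, read out with a cell viability assay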
Description: SANGER: Inhibition of human KURAMOCHI cell growth in a cell viability assay.

LAMA-84 = conditions: Homo sapiens, LAMA-84;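 further: growth inhibition of LAMA-84 cells, read out with a cell viability assay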
Description: SANGER: Inhibition of human LAMA-84 cell growth in a cell viability assay.

LB2518-MEL = conditions: Homo sapiens, LB2518-MEL;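 further: growth inhibition of human LB2518-MEL cells, measured with a cell viability assay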
Description: SANGER: Inhibition of human LB2518-MEL cell growth in a cell viability assay.

LS-1034 = conditions: Homo sapiens, LS-1034
Description: SANGER: Inhibition of human LS-1034 cell growth in a cell viability assay.

LS-123 = conditions: Homo sapiens, LS-123
Description: SANGER: Inhibition of human LS-123 cell growth in a cell viability assay.

LU-139 = conditions: Homo sapiens, LU-139
Description: SANGER: Inhibition of human LU-139 cell growth in a cell viability assay.

LXF-289 cell line = conditions: Homo sapiens, LXF-289
Description: SANGER: Inhibition of human LXF-289 cell growth in a cell viability assay.

MHH-NB-11 = conditions: Homo sapiens, MHH-NB-11;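 further: growth inhibition of human MHH-NB-11 cells, read out by a cell viability assay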
Description: SANGER: Inhibition of human MHH-NB-11 cell growth in a cell viability assay.

ML-2 = conditions: Homo sapiens, ML-2;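 further: growth inhibition of ML-2 cells, measured with a cell viability readout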
Description: SANGER: Inhibition of human ML-2 cell growth in a cell viability assay.

MLMA = conditions: Homo sapiens, MLMA;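 further: growth inhibition of MLMA cells (human), determined through a cell viability readout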
Description: SANGER: Inhibition of human MLMA cell growth in a cell viability assay.

MZ7-mel = conditions: Homo sapiens, MZ7-mel;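 further: growth inhibition of human MZ7-mel cells, measured by a cell viability assay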
Description: SANGER: Inhibition of human MZ7-mel cell growth in a cell viability assay.

NB10 = conditions: Homo sapiens, NB10;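 further: growth inhibition of NB10 cells, read out by a cell viability assay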
Description: SANGER: Inhibition of human NB10 cell growth in a cell viability assay.

NB17 = conditions: Homo sapiens, NB17;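 further: growth inhibition of NB17 cells, read out with a cell viability assay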
Description: SANGER: Inhibition of human NB17 cell growth in a cell viability assay.

NCI-H1581 = conditions: Homo sapiens, NCI-H1581;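 further: cell growth inhibition read out by a viability assay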
Description: SANGER: Inhibition of human NCI-H1581 cell growth in a cell viability assay.

NCI-H1648 = conditions: Homo sapiens, NCI-H1648;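 further: cell viability assay measuring inhibition of NCI-H1648 cell growth, from the Sanger screening data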
Description: SANGER: Inhibition of human NCI-H1648 cell growth in a cell viability assay.

NCI-H1650 = conditions: Homo sapiens, NCI-H1650;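 further: growth inhibition of human NCI-H1650 cells measured by a cell viability assay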
Description: SANGER: Inhibition of human NCI-H1650 cell growth in a cell viability assay.

NCI-H23 = conditions: Homo sapiens, NCI-H23;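 further: cell viability assay measuring growth inhibition of NCI-H23 cells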
Description: SANGER: Inhibition of human NCI-H23 cell growth in a cell viability assay.

NCI-H446 = conditions: Homo sapiens, NCI-H446;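 further: growth inhibition of NCI-H446 cells determined by a cell viability assay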
Description: SANGER: Inhibition of human NCI-H446 cell growth in a cell viability assay.

NCI-H69 = conditions: Homo sapiens, NCI-H69;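 further: growth inhibition of the cell line, read out with a cell viability assay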
Description: SANGER: Inhibition of human NCI-H69 cell growth in a cell viability assay.

NCI-H82 = conditions: Homo sapiens, NCI-H82;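 further: growth inhibition of NCI-H82 cells, measured with a cell viability readout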
Description: SANGER: Inhibition of human NCI-H82 cell growth in a cell viability assay.

NMC-G1 = conditions: Homo sapiens, NMC-G1;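 further: growth inhibition of the NMC-G1 cell line, measured with a cell viability read-out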
Description: SANGER: Inhibition of human NMC-G1 cell growth in a cell viability assay.

OCI-AML2 = conditions: Homo sapiens, OCI-AML2;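 further: growth inhibition of OCI-AML2 cells, read out with a cell viability assay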
Description: SANGER: Inhibition of human OCI-AML2 cell growth in a cell viability assay.

OVCAR-4 = conditions: Homo sapiens, OVCAR-4;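 further: growth inhibition of human OVCAR-4 cells, measured with a cell viability assay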
Description: SANGER: Inhibition of human OVCAR-4 cell growth in a cell viability assay.

SCC-15 = conditions: Homo sapiens, SCC-15;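 further: growth inhibition of SCC-15 cells, read out with a cell viability assay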
Description: SANGER: Inhibition of human SCC-15 cell growth in a cell viability assay.

SW 954 = conditions: Homo sapiens, SW 954;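 further: growth inhibition of SW954 human cancer cells, read out as cell viability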
Description: SANGER: Inhibition of human SW954 cell growth in a cell viability assay.

TE-1 = conditions: Homo sapiens, TE-1;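 further: growth inhibition of the human TE-1 cell line, read out with a cell viability assay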
Description: SANGER: Inhibition of human TE-1 cell growth in a cell viability assay.

697 = conditions: Homo sapiens
Description: SANGER: Inhibition of human 697 cell growth in a cell viability assay.

A253 cell line = conditions: Homo sapiens, A253;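 further: growth inhibition of A253 cells, read out with a cell viability assay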
Description: SANGER: Inhibition of human A253 cell growth in a cell viability assay.

BB30-HNC = conditions: Homo sapiens, BB30-HNC;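 further: growth inhibition of the cultured cell line, read out by a cell viability assay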
Description: SANGER: Inhibition of human BB30-HNC cell growth in a cell viability assay.

BV-173 = conditions: Homo sapiens, BV-173
Description: SANGER: Inhibition of human BV-173 cell growth in a cell viability assay.

Becker = conditions: Homo sapiens, Becker;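 further: growth inhibition of Becker cells, read out with a cell viability assay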
Description: SANGER: Inhibition of human Becker cell growth in a cell viability assay.

VA-ES-BJ = conditions: Homo sapiens, VA-ES-BJ;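 further: growth inhibition of the VA-ES-BJ cell line, read out by a cell viability assay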
Description: SANGER: Inhibition of human VA-ES-BJ cell growth in a cell viability assay.

no-11 = conditions: Homo sapiens;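 further: growth inhibition of human NO-11 cells, read out with a cell viability assay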
Description: SANGER: Inhibition of human no-11 cell growth in a cell viability assay.

COLO-684 = conditions: Homo sapiens, COLO-684
Description: SANGER: Inhibition of human COLO-684 cell growth in a cell viability assay.

A704 = conditions: Homo sapiens, A704;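 further: growth inhibition of human A704 cells, read out with a cell viability assay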
Description: SANGER: Inhibition of human A704 cell growth in a cell viability assay.

`COc1cc(N2CCN(C)CC2)ccc1Nc1ncc2c(n1)N(C)c1ccccc1C(=O)N2C` gave an IC50 (Calu-6) greater than 8000 nM, an IC50 (D-263MG) greater than 8000 nM and an IC50 (ES3) greater than 8000 nM. It also gave an IC50 (ES5) greater than 8000 nM, an IC50 (ES8) of 4160 nM and an IC50 (EW-1) of 3840 nM. The IC50 (HCE-T) was greater than 8000 nM, the IC50 (HD-MY-Z) was greater than 8000 nM and the IC50 (HH) was 4580 nM. For the same molecule, the IC50 (JVM-2) was greater than 8000 nM, the IC50 (KARPAS-299) was greater than 8000 nM and the IC50 (KMOE-2) was greater than 8000 nM. For the same molecule, the IC50 (KNS-81-FD) was greater than 8000 nM, the IC50 (KP-N-YS) was greater than 8000 nM and the IC50 (KURAMOCHI) was greater than 8000 nM. It also gave an IC50 (LAMA-84) greater than 8000 nM, an IC50 (LB2518-MEL) greater than 8000 nM and an IC50 (LS-1034) greater than 8000 nM. For the same molecule, the IC50 (LS-123) was greater than 8000 nM, the IC50 (LU-139) was 6860 nM and the IC50 (LXF-289 cell line) was greater than 8000 nM. It also gave an IC50 (MHH-NB-11) greater than 8000 nM, an IC50 (ML-2) of 7330 nM and an IC50 (MLMA) greater than 8000 nM. For the same molecule, the IC50 (MZ7-mel) was 7540 nM, the IC50 (NB10) was greater than 8000 nM and the IC50 (NB17) was greater than 8000 nM. For the same molecule, the IC50 (NCI-H1581) was greater than 8000 nM, the IC50 (NCI-H1648) was greater than 8000 nM and the IC50 (NCI-H1650) was greater than 8000 nM. It also gave an IC50 (NCI-H23) greater than 8000 nM, an IC50 (NCI-H446) greater than 8000 nM and an IC50 (NCI-H69) greater than 8000 nM. The IC50 (NCI-H82) was greater than 8000 nM, the IC50 (NMC-G1) was greater than 8000 nM and the IC50 (OCI-AML2) was 3600 nM. The IC50 (OVCAR-4) was greater than 8000 nM, the IC50 (SCC-15) was greater than 8000 nM and the IC50 (SW 954) was 4850 nM. For the same molecule, the IC50 (TE-1) was greater than 8000 nM, the IC50 697 was 654 nM and the IC50 (A253 cell line) was greater than 8000 nM. It also gave an IC50 (BB30-HNC) of 4510 nM, an IC50 (BV-173) of 7430 nM and an IC50 (Becker) of 7460 nM. The IC50 (VA-ES-BJ) was greater than 8000 nM, the IC50 (no-11) was greater than 8000 nM and the IC50 (COLO-684) was greater than 8000 nM.
Work on `OCCCNc1cc(-c2ccnc(Nc3cccc(Cl)c3)n2)ccn1` yielded an IC50 (Calu-6) greater than 256 nM, an IC50 (D-263MG) greater than 256 nM and an IC50 (ES3) greater than 256 nM. The IC50 (ES5) was greater than 256 nM, the IC50 (ES8) was greater than 256 nM and the IC50 (EW-1) was 45.8 nM. The IC50 (HCE-T) was 47.3 nM, the IC50 (HD-MY-Z) was 60.2 nM and the IC50 (HH) was 70.6 nM. It also gave an IC50 (JVM-2) greater than 256 nM, an IC50 (KARPAS-299) of 29.2 nM and an IC50 (KMOE-2) greater than 256 nM. It also gave an IC50 (KNS-81-FD) greater than 256 nM, an IC50 (KP-N-YS) greater than 256 nM and an IC50 (KURAMOCHI) of 59.8 nM. It also gave an IC50 (LAMA-84) of 203 nM, an IC50 (LB2518-MEL) greater than 256 nM and an IC50 (LS-1034) of 255 nM. For the same molecule, the IC50 (LS-123) was 93 nM, the IC50 (LU-139) was 131 nM and the IC50 (LXF-289 cell line) was 164 nM. The IC50 (MHH-NB-11) was 217 nM, the IC50 (ML-2) was greater than 256 nM and the IC50 (MLMA) was 57.4 nM. For the same molecule, the IC50 (MZ7-mel) was greater than 256 nM, the IC50 (NB10) was greater than 256 nM and the IC50 (NB17) was 88.7 nM. The IC50 (NCI-H1581) was greater than 256 nM, the IC50 (NCI-H1648) was 189 nM and the IC50 (NCI-H1650) was greater than 256 nM. For the same molecule, the IC50 (NCI-H23) was 245 nM, the IC50 (NCI-H446) was greater than 256 nM and the IC50 (NCI-H69) was greater than 256 nM. The IC50 (NCI-H82) was greater than 256 nM, the IC50 (NMC-G1) was 32.3 nM and the IC50 (OCI-AML2) was 62.6 nM. The IC50 (OVCAR-4) was greater than 256 nM, the IC50 (SCC-15) was greater than 256 nM and the IC50 (SW 954) was 170 nM. For the same molecule, the IC50 (TE-1) was greater than 256 nM, the IC50 697 was 19.7 nM and the IC50 (A253 cell line) was 64.9 nM. The IC50 (A704) was greater than 256 nM, the IC50 (BB30-HNC) was 52.5 nM and the IC50 (BV-173) was 144 nM. For the same molecule, the IC50 (Becker) was 47.9 nM, the IC50 (VA-ES-BJ) was 41.6 nM and the IC50 (no-11) was 29.3 nM. It also gave an IC50 (COLO-684) of 94.9 nM.
